Tests used:
Type in all cases: cell-based, human
[1] = test system: Pgp+ (DiOC2(3)-dye effluxing) T cells; experiment: DiOC2(3) dye efflux flow cytometry of inhibitor-treated T cells; settings: treatment for 13 days, IL2 + CD3 and CD28 antibodies
Procedure: (§1) The use of P-glycoprotein (Pgp)-mediated efflux of DiOC2(3) to isolate stem like T cells for adoptive cellular therapy has been described in application no. […] In the following examples, DiOC2(3) staining was used to study the effect of different inhibitors on generation of stem like T cells.
(§2) DAY 0: Blood was obtained from unidentified donor. After RBC lysis, PBMC were collected using Ficoll-Hypaque separation. […] T cells were cultured in three different conditions: • 1. XVIVO 15 medium (Lonza) with IL2 50 IU/ml, CD3 antibody (30 ng/ml) and CD28 antibody (30 ng/ml). • 2. XVIVO 15 medium (Lonza) with CD3 antibody (30 ng/ml) and CD28 antibody (30 ng/ml). • 3. XVIVO 15 medium (Lonza) with IL2 50 IU/ml DAY 1: Cells were plated in a 6-well plate at a density of 1 million cells in 2 ml/of media (as described above) and treated with different inhibitors
(§3) The cell growth medium was changed in 6-well plates and fresh drugs were added at same concentration for one more week.
(§4) […] (DAY 11): Culture medium was changed and fresh drugs were added in 6-well plates.
(§5) Subsequently, cells were washed with RPMI medium and dye was effluxed at 37° C. for 90 min. Cells were washed with […], stained with CD62L-APC (5 μl/100 μl/sample) at 4° C. for 1 h, washed twice with PBS+1% FBS and analyzed on flow cytometer to check if these drugs treatment leads to increase in Pgp+/CD62L positive population.
(§6) Day 0: Blood was obtained from unidentified donor. After RBC lysis, PBMC were collected using Ficoll-Hypaque separation. 200 million T cells were isolated from PBMCs using CD3 microbeads. T cells were cultured overnight in XVIVO 15 medium (Lonza) with IL2 (50 IU/ml), 30 ng/ml of CD3 and CD28 antibodies
(§7) Day 1: Cells were plated in 24-well plates at a density of 0.3 million cells/ml in each well and treated with different drugs.
(§8) On day 7, culture medium was replaced with fresh medium with fresh drugs.
(§9) On day 13, culture medium was replaced with fresh medium and fresh drugs. Half of the cells were transferred to 6-well plates.
(§10) Day 14: An aliquot of cells with all the treatments listed above (for 13 days) was used to stain the cells with DiOC2(3) (60 ng/ml in RPMI medium) at 4° C. for 40 min, washed with RPMI medium, DiOC2(3) dye was effluxed at 37° C. for 90 min, washed with PBS+1% FBS, stained with CD62L-APC antibody. CD62L is a marker for resting T cells. (5 μl/100 μl/sample) at 4° C. for 1 h, washed twice with PBS+1% FBS and analyzed on flow cytometer to check if these drugs are affecting the dye-effluxing or Pgp+ (i.e., DiOC2(3)-dull) T-cell population.

[2] = test system: Pgp+ (DiOC2(3)-dye effluxing cells) and CD62L+ T cells; experiment: DiOC2(3) dye efflux plus CD62L-APC staining, flow cytometry of inhibitor-treated T cells; settings: treatment for 13 days, IL2 + CD3 and CD28 antibodies
Procedure: as §1, §2, §3, §4, §5, §6, §7, §8, §9, §10

[3] = test system: CD8+CD45RA+CCR7+CD62L+ T cells; experiment: Flow cytometry for CD8, CD45RA, CCR7 and CD62L on inhibitor-treated T cells; settings: cells cultured for 14 days
Procedure: as §2
(§11) A second aliquot of the cells cultured for 13 days with all the treatments listed above (1-21) was washed with PBS+1% FBS, stained with CD8-PerCP, CD45RA-FITC, CCR7-PE and CD62L-APC ([…] for each of 4 antibodies) at 4° C. for 1 h, washed twice with […] and analyzed on flow cytometer to check if these drugs are enriching T stem cells showing surface expression of CD8+CD45RA+CCR7+CD62L+.
as §6, §7, §8, §9
(§12) A second aliquot of the cells cultured for 14 days with all the treatments listed above was washed with PBS+1% FBS, stained with CD8-PerCP, CD45RA-FITC, CCR7-PE and CD62L-APC (5 ul/100 ul/sample for each of 4 antibodies) at 4° C. for 1 h, washed twice with PBS+1% FBS and analyzed on flow cytometer to check if these drugs are enriching for T cells showing surface expression of CD8+CD45RA+CCR7+CD62L+.

[4] = test system: CD45RA+CCR7+CD62L+ T cells; experiment: Flow cytometry for CD45RA, CCR7 and CD62L on inhibitor-treated T cells (all T cells); settings: cells cultured for 14 days
Procedure: as §2, §11, §6, §7, §8, §9, §12

| SMILES | p2: pgp+ from Live cells ([1]; 100 nM) | p2: pgp+ from Live cells ([1]; 500 nM) | p5: double +ve pgp+ and CD62L-APC+ from Live cells ([2]; 100 nM) | p5: double +ve pgp+ and CD62L-APC+ from Live cells ([2]; 500 nM) | GATE P4 CD8(PerCP)+, CD45RA(FITC)+, CCR7 (PE)+, CD62L(APC) ([3]; 100 nM) [%] | GATE P4 CD8(PerCP)+, CD45RA(FITC)+, CCR7 (PE)+, CD62L(APC) ([3]; 500 nM) [%] | GATE P6 CD45RA(FITC)+, CCR7 (PE)+, CD62L(APC) ([4]; 100 nM) [%] | GATE P6 CD45RA(FITC)+, CCR7 (PE)+, CD62L(APC) ([4]; 500 nM) [%] | p2: pgp+ from Live cells ([1]; 1 μM) | p5: double +ve pgp+ and CD62L-APC+ from Live cells ([2]; 1 μM) | GATE P4 CD8(PerCP)+, CD45RA(FITC)+, CCR7 (PE)+, CD62L(APC) ([3]; 1 μM) [%] | GATE P6 CD45RA(FITC)+, CCR7 (PE)+, CD62L(APC) ([4]; 1 μM) [%] | p2: pgp+ from Live cells ([1]; 200 nM) | p5: double +ve pgp+ and CD62L-APC+ from Live cells ([2]; 200 nM) | GATE P4 CD8(PerCP)+, CD45RA(FITC)+, CCR7 (PE)+, CD62L(APC) ([3]; 200 nM) [%] | GATE P6 CD45RA(FITC)+, CCR7 (PE)+, CD62L(APC) ([4]; 200 nM) [%] | p2: pgp+ from Live cells ([1]; 500 (unit not given)) | p5: double +ve pgp+ and CD62L-APC+ from Live cells ([2]; 500 (unit not given)) |
| --- | --- | --- | --- | --- | --- | --- | --- | --- | --- | --- | --- | --- | --- | --- | --- | --- | --- | --- |
| COc1cc(-c2cn(C)c(=O)c3cnccc23)c(OC)cc1CN(C)C [B9564] | 13.39 | 15.56 | 2.53 | 3.03 | 73.18 | 83.31 | 63.27 | 73.75 | – | – | – | – | – | – | – | – | – | – |
| CCc1sc(N)nc1-c1ccc(OC)cc1 [CBFB] | – | 16.01 | – | 2.85 | – | 74.77 | – | 64.71 | 20.93 | 3.56 | 74.12 | 65.61 | – | – | – | – | – | – |
| CCS(=O)(=O)N1CCC([C@@H](C)n2c(C)c(C(=O)NCc3c(OC)cc(C)[nH]c3=O)c3ccccc32)CC1 [CP1169] | 25.52 | – | 4.68 | – | 81.07 | – | 70.48 | – | – | – | – | – | 30.65 | 6.4 | 75.83 | 66.23 | – | – |
| COc1cc(C)[nH]c(=O)c1CNC(=O)c1c(C)n([C@H](C)C2CCOCC2)c2ccccc12 [CPI360] | 25.15 | – | 5.82 | – | 81.01 | 81.26 | 70.85 | 69.62 | – | – | – | – | – | – | – | – | 35.55 | 11.11 |
| CS(=O)(=O)c1ccc(-c2cnc(NCc3ccco3)n3cnnc23)cc1 [EED226] | – | 37.6 | – | 10.41 | – | 70.21 | – | 60.45 | 43.53 | 11.82 | 74.83 | 60.45 | – | – | – | – | – | – |
| CCN(c1cc(C#CCN2CCOCC2)cc(C(=O)NCc2c(C)cc(C)[nH]c2=O)c1C)[C@H]1CC[C@H](N(C)CCOC)CC1 [EPZ011989] | – | 64.39 | – | 18.77 | – | 70.63 | – | 57.62 | 62.54 | 16.8 | 72.83 | 58.31 | – | – | – | – | – | – |
| CC[C@H](C)n1cc(C)c2c(C(=O)NCc3c(C)cc(C)[nH]c3=O)cc(-c3ccc(N4CCNCC4)nc3)cc21 [GSK126] | 36.37 | 26.61 | 8.83 | 8.08 | 76.44 | 79.6 | 67.75 | 67.65 | – | – | – | – | – | – | – | – | – | – |
